Experimental data reported in patent publication US20190117657A1, “METHOD OF INHIBITING HIGH FAT DIET-RELATED CONDITIONS” (South Australian Health and Medical Research Institute …, priority 2016, published 2019).
Entries after “also recorded” stand apart in the source; their conditions may differ. Where a name gives a salt, the structure may show the parent alone. Values belong to the molecule of their own block, whether it stands above or below them.

Legend:
MNK1 [1] = molecular target: MNK1 (Homo sapiens, UniProt Q9BUB5); details: cited from earlier work
Sequence of MNK1 (Homo sapiens, UniProt Q9BUB5) (Q9BUB5 whole entry, species assumed): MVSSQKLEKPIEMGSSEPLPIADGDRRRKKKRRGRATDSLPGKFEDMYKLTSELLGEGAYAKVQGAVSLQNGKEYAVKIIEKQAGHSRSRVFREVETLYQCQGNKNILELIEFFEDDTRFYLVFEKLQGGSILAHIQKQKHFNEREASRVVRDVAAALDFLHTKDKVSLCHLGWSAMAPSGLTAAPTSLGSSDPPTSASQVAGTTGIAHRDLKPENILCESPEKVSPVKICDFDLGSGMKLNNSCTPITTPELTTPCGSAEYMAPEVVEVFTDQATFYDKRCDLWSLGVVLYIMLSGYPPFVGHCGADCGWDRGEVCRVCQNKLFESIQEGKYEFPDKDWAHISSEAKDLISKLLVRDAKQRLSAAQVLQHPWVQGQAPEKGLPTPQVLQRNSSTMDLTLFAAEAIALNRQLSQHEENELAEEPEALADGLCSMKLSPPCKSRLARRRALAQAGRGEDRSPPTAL

MNK2 [2] = molecular target: MNK2 (Homo sapiens, UniProt Q9HBH9); details: cited from earlier work
Sequence of MNK2 (Homo sapiens, UniProt Q9HBH9) (Q9HBH9 whole entry, species assumed): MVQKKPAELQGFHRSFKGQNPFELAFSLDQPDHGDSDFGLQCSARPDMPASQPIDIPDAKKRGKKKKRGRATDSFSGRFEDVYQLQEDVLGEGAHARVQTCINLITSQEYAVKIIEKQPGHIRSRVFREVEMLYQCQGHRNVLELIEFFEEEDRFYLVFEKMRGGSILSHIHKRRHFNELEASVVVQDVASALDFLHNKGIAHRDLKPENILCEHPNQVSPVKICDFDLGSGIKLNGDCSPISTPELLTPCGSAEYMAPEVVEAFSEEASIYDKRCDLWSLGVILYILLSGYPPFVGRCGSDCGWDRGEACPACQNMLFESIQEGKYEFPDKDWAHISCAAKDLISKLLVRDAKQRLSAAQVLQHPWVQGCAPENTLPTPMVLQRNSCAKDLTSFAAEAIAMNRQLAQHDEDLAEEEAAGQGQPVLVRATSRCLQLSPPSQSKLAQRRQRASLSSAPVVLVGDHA

MNKs = assay: eIF4E phosphorylation (P-eIF4E immunoblot) in 3T3-L1 cells as read-out of MNK activity; type: cell-based; details: for inhibition of P-eIF4E / MNK activity: immunoblot
From the text: Similar data obtained in three replicate experiments.
The term “MNK inhibitor” as used herein is intended to refer to any compound that reduces the biological activity of MNK1 (including reducing the biological activity of one or both of splice variants MNK1 a and MNK1b) and/or MNK2 (including reducing the biological activity of one or both of splice variants MNK2a and MNK2b), including by reducing the amount of MNK1 and/or MNK2 expressed. For example, the MNK inhibitor may be a small organic molecule (also referred to as a “small molecule” herein), a peptide antagonist, an inhibitory antibody or fragment thereof, an interfering nucleotide molecule, an aptamer or other MNK inhibitor that inhibits the expression or biological activity as would be understood by those skilled in the art. The biological activity of MNK1 and MNK2 can be measured in a variety of ways, for example, by measuring phosphorylation of its substrate eIF4E to P-eIF4E using any suitable method known to those skilled in the art, for example, by performing an immunoblot or ELISA utilising a specific anti-P-eIF4E antibody, for example, the anti-phospho eIF4E (Ser209) antibody distributed by Merck Millipore, Catalogue No. 07-823 (Merck Millipore, Billerica, Mass., United States of America). […] Those skilled in the art will be aware of how to conduct suitable controls when measuring P-eIF4E levels. The MNK1 and/or MNK2 bioactivity can otherwise be measured using a cellular assay that can detect levels of MNK1 and/or MNK2 bioactivity. Antibodies that specifically detect phosphorylated MNK could also be used, for example, anti-P-MNK1 (Phospho-Mnk1 (Thr197/202) Antibody #2111; Cell Signaling Technology Inc, Danvers, Mass., United States of America). Additionally, those skilled in the art will appreciate that the MNK inhibitors should be safe for use for its intended purpose.
Tissues were harvested in RIPA lysis buffer containing 50 mM TrisHCl, pH 7.4, 150 mM NaCl, 1% Triton X-100, 0.1% sodium deoxycholate, 0.1% sodium dodecyl sulfate, 1 mM ethylenediaminetetraaacteic acid (EDTA), 50 mM β-glycerolphosphate, 0.5 mM NaVO3, 0.1% 2-mercaptoethanol and protease inhibitors (Roche). After lysis, insoluble material was removed by centrifugation at 12,000 g for 10 min at 4° C. Protein content was determined by the Bradford protein assay (Bio-Rad). Immunoblotting was performed as described in Liu et al. (2014). Blots were visualised using a LI-COR Odyssey® Quantitative Imaging System. Primary antibodies as indicated in Table 5 were from Cell Signaling Technologies, except for anti-P-eIF4E (Merck Millipore). Secondary antibodies were obtained from Thermo Fisher Scientific Inc. (Waltham, Mass., United States of America) and used at 1:20,000 dilution.
MNKs are the only kinases known to phosphorylate eIF4E, and accordingly, the phosphorylation of eIF4E (P-eIF4E) provides a direct read-out of MNK biological activity.
(§1) Since eIF4E is only phosphorylated by the MNKs, its phosphorylation status is a reliable read-out of intracellular MNK activity. […] MNK2 is the main MNK in 3T3-L1 cells and in adipose tissue (Moore et al., 2016). In additional studies, tests were conducted to assess the effect of the MNK-I2 inhibitor on the induction of differentiation markers in 3T3-L1 cells.

3T3-L1 cells [3] = assay: Induction of adipogenic gene mRNAs in differentiating 3T3-L1 cells (RT-qPCR); type: cell-based
Protocol: Total RNA was isolated from tissues (frozen at the time of sampling) using Trizol reagent (Sigma-Aldrich) according to the manufacturer's instructions. RNA concentrations were determined by absorbance at 260 nm, while quality and integrity were evaluated via 260/230 and 260/280 ratios using a NanoDrop spectrophotometer (Thermo Fisher Scientific). RT-real time PCR amplification was carried out using the ImProm-II Reverse Transcription System (A3800; Promega, Madison, Wis., United States of America) with random primers following the manufacturer's protocol. Subsequently, real-time quantitative (q) PCR was performed using primer sequences described in Supplemental Table S1 of Moore CEJ et al., 2016, the content of which is hereby incorporated by reference in its entirety). The comparative CT method was used to measure the amplification of target mRNA levels compared with […] (B2M) mRNA. In FIG. 1A, the relative amount of each transcript was determined using the equation 2^−dCt, where dCt=(Ct target gene-Ct ref gene), and Ct=cycle threshold.
(§2) For induction of 3T3-L1 (fibroblast) cell differentiation, pre-adipocytes were grown to 2 days post-confluence in DMEM supplemented with 10% FBS (day 0) and the medium was changed to DMEM supplemented with 10% FBS, insulin (167 nM), dexamethasone (0.5 μM), isobutylmethylxanthine (IBMX) (0.5 mM) and rosiglitazone (2 μM). After 48 h, the medium was replaced with medium containing DMEM supplemented with 10% (v/v) FBS and 167 nM insulin. On day 4, after inducing differentiation, and thereafter, the cells were cultured in DMEM with 10% FBS. The maintenance medium was changed every 48 h until the cells were utilised for experimentation (9 days from the initiation of differentiation).
In order to study the role of MNK2 in adipocyte differentiation, 3T3-L1 cells were used in a similar manner to that described in Example 1. […]

MNK2 [4] = molecular target: T1, MNK2 (Mus musculus, UniProt Q8CDB0); assay: P-eIF4E in MNK1-KO mouse embryonic fibroblasts (reports on MNK2); type: cell-based
T1 construct: endogenous in cells; host or cells: MNK1-KO mouse embryonic fibroblasts
T1 sequence (Q8CDB0 whole entry): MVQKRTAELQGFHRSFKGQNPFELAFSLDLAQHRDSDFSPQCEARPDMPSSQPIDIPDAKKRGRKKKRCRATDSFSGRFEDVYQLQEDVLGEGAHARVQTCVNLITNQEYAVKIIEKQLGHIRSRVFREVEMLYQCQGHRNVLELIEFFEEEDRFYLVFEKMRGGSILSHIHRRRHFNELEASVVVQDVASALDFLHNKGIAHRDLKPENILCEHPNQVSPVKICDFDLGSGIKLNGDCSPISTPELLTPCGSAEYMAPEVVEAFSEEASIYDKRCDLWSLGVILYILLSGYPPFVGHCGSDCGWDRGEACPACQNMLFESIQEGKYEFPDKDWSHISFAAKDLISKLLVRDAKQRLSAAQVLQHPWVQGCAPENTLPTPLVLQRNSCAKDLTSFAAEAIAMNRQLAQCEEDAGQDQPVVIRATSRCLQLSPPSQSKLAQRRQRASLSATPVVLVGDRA

MNK1 [5] = molecular target: T2, MNK1 (Mus musculus, UniProt O08605); assay: P-eIF4E in MNK2-KO mouse embryonic fibroblasts (reports on MNK1); type: cell-based; details: 1 h
T2 construct: endogenous in cells; host or cells: MNK2-KO mouse embryonic fibroblasts
T2 sequence (O08605 whole entry): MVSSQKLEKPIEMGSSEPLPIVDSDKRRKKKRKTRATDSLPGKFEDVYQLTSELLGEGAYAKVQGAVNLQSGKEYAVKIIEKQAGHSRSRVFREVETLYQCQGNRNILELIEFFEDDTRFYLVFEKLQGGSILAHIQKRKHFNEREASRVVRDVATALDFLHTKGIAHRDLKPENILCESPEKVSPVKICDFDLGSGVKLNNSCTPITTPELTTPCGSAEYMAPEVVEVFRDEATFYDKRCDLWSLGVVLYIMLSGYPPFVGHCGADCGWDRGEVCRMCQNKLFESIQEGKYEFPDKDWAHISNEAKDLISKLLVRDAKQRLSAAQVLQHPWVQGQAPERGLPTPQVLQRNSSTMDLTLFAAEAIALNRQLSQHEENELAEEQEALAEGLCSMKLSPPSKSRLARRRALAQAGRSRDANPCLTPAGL
From the text: FIG. 16 provides the results of studies conducted on mouse embryonic fibroblasts (MEFs): MNK1-KO (A) or MNK2-KO (B). […] The graphs show combined data from three experiments. *, p<0.05 vs. untreated control; ****, p<0.0001, vs. untreated control.
In some embodiments, the MNK inhibitor may preferably show selectivity and/or increased inhibitory potency to MNK2. A simple test for assessing the selectivity of an MNK inhibitor can be conducted by treating suitable cells from animals in which either MNK1 or MNK2 has been knocked out (eg mouse embryonic fibroblasts (MEFs) from MNK1-KO and MNK2-KO mice) with the MNK inhibitor. Since, in MNK1-KO MEFs, eIF4E phosphorylation depends on MNK2, and vice versa, monitoring the effect of different concentrations of an MNK inhibitor of interest on P-eIF4E levels in MNK-KO MEFs reports on the ability of that compound to inhibit MNK2 (MNK1-KO MEFs) or MNK1 (MNK2-KO MEFs).
as §1

3T3-L1 cells [6] = assay: Lipid accumulation in differentiating 3T3-L1 cells (Oil Red O / triglyceride); type: cell-based
Protocol: as §2
Assessment of intracellular triglyceride levels was performed using Oil Red O staining as described by others (Smith et al., 1988). Briefly, on day 9 of differentiation of the 3T3-L1 cells were fixed in 10% formalin for 1 hour. […] For quantification, cells were washed extensively with water to remove unbound dye, and 1 ml isopropanol was added to the stained 6-well culture plate. After 5 min, the absorbance of the oil red extract at 510 nm was measured, with an increased absorbance indicative of an increased lipid level within the cells.
The amount of tissue-released triglyceride (TAG) was measured using a Triglyceride Quantification Kit (Abcam, ab65336).

other protein kinases = details: cited from earlier work
3T3L1 cells = assay: Lipolysis assay (glycerol release) in differentiated 3T3-L1 cells; type: cell-based; details: cells differentiated in presence vs absence of compound
Protocol: 3T3L1 cells were differentiated as described above for 9 days. The lipolysis assay was performed according to the manufactures instructions (Abcam Lipolysis assay kit, ab185433, Abcam). Briefly, after differentiation cells were washed two times with lipolysis assay buffer. Lipolysis was stimulated using 100 nM isoproterenol for 3 h. The amount of glycerol released was measured using colorimetric intensity.

Structure (SMILES): COC(=O)[C@@]1(C)C[C@@]2(C)O[C@]1(C)n1c3ccccc3c3c4c(c5c6ccccc6n2c5c31)C(=O)NC4 [CGP052088]
IC50 (MNK1 [1]): 0.07 µM

Structure (SMILES): c1cc(-c2cc(C3CCNCC3)[nH]n2)ccn1 [ETP 45835 dihydrochloride, 4-[5-(4-Piperidinyl)-1H-pyrazol-3-yl]pyridine dihydrochloride]
IC50 (MNK1 [1]): 0.575 µM | IC50 (MNK2 [2]): 0.646 µM

inhibition of P-eIF4E in MNK2-KO MEFs (MNK1 [5]): weaker inhibitory effect than MNK-I1
Structure (SMILES): Cc1c(C(=O)NCCCN2CCCC2)sc2ncnc(Nc3ccc(F)cc3OC(C)C)c12 [MNK-I2]
Comments (ability to inhibit MNKs, eIF4E phosphorylation) (MNKs): Good activity, especially against MNK2 | inhibition of P-eIF4E / MNK activity (MNKs): inhibits P-eIF4E strongly | induction of adipogenic genes (Cebpα, Cebpβ, Cebpδ, Pparγ, Fas, Acc, Cd36 mRNA) (3T3-L1 cells [3]; 3T3-L1 cells with differentiation cocktail, RT-qPCR): impaired the induction of all of the genes in the adipogenic programme | inhibition of P-eIF4E levels in MNK1-KO MEFs (MNK2 [4]; 1 h, lowest concentration 0.1 μM): inhibited P-eIF4E levels almost completely at all concentrations tested | selectivity for MNK2 over MNK1 (MNK2 [4]; comparison of MNK1-KO and MNK2-KO MEFs): selectivity of the MNK-I2 inhibitor for MNK2 over MNK1

Structure (SMILES): CC(=O)C1=C(O)C=C2Oc3c(C(N)=O)c(O)cc(O)c3[C@]2(C)C1=O [cercosporamide, (9aS)-8-Acetyl-9,9a-dihydro-1,3,7-trihydroxy-9a-methyl-9-oxo-4-dibenzofurancaboxamide]
lipid accumulation (3T3-L1 cells [6]; 10 μM, 3T3-L1 cells): reduced lipid accumulation | induction of adipogenic genes such as PPARγ (mRNA) (3T3-L1 cells [3]; 10 μM, 3T3-L1 cells): impaired the induction of genes such as PPARγ | inhibition of other protein kinases (other protein kinases): inhibit other protein kinases in addition to the MNKs

Structure (SMILES): Nc1ncnc2[nH]nc(Nc3ccc(F)cc3)c12 [CGP57380, N3-(4-Fluorophenyl)-1H-pyrazolo-[3,4-d]pyrimidine-3,4-diamine]
inhibition of P-eIF4E / MNK activity (MNKs): almost completely blocking MNK activity | accumulation of lipid (Oil Red O) (3T3-L1 cells [6]; 20 μM, 3T3-L1 cells differentiated 9 days): inhibited the accumulation of lipid; also recorded: markedly inhibited | induction of adipogenic genes (PPARγ, C/EBPα, SREBP1c, GLUT4, CD36 mRNA) (3T3-L1 cells [3]; 20 μM, day 3 and 6 of differentiation): substantially blocked the induction of all of these genes; also recorded: impairs the induction of key transcription factors; also recorded: inhibits the expression of the glucose and lipid transporters GLUT4 and CD36; also recorded: inhibited expression of a number of genes required for adipocyte differentiation | glycerol released in lipolysis assay (3T3L1 cells): less glycerol was released | inhibition of other protein kinases (other protein kinases): inhibit other protein kinases in addition to the MNKs
